Test results: patent publication US10295528B2, “Method of screening ATP11C or CDC50A inhibitor” (KYOTO UNIVERSITY, priority 2014, dated 2019)
One block for each molecule: values may come before it.

Tests used:
ATP11C = assay: FasL-induced ATP11C cleavage in W3 cells, Western blotting with anti-mATP11C; type: cell-based, mouse; settings: 1 h FasL, 20 μM QVD-Oph, membrane fractions
Description: FIG. 3D Cleavage of ATP11C by caspase (D). W3 and ATP11C^ED22 were incubated for 1 h with FasL in the presence or absence of 20 μM QVD-Oph. Membrane fractions were analyzed by Western blotting with anti-mATP11C or anti-mFas. Upper and middle panels: the blot with anti-mATP11C, where exposure time is longer in the middle panel.
Cells or membrane fractions were lysed in RIPA buffer ([…] (pH 8.0) containing 1% MP-40, 0.1% SDS, 0.5% sodium deoxycholate, 150 mM NaCl, and a cocktail of protease inhibitors (cOmplete, Mini, EDTA-free, Roche Diagnostics)). After removing insoluble materials by centrifugation, the lysates were mixed […] with 3×SDS sample buffer (200 mM Tris-HCl [pH 6.8], 10% SDS, 25% glycerol, 15% β-mercaptoethanol, and 0.05% bromophenol blue), and incubated at room temperature for 20 min. Proteins cere separated by SDS-PAGE using a 7.5% or 10-20% gradient gel (Bio Graft), and transferred to a PVDF membrane (Millipore). The membranes were probed with mouse anti-GFP mAb, rabbit anti-active caspase-3 mAb, rabbit anti-hATP11C Ab, rabbit anti-α-tubulin mAb, or rat anti-mFas mAb, followed by incubation with HRP-conjugated goat anti-mouse Igs, goat anti-rabbit Igs or rabbit anti-rat Igs (Dako). The peroxidase activity was detected by the Western Lightning-ECL system (PerkinElmer).

ATP11C^GT = assay: Internalization of NBD lipids (flippase activity), flow cytometry; type: cell-based, human; settings: KBM7-derived ATP11C^GT cells, 20 min with NBD-PS with or without vanadate, MFI
Description: FIG. 2D Requirement of ATP11C and CDC50A for flippase activity (D), KBM7, ATP11C^GT, and CDC50A^GT were incubated for 20 min with NBD-PS with or without an ATPase inhibitor vanadate, and analyzed by flow cytometry. MFI was plotted (n=3).
Cells (2×10^6) were incubated with 1.5 μM NBD-PS, NBD-PE, or NBD-PC at 25° C. for 15-20 min in 600 μl of HBSS containing 1 mM MgCl2 and 2.5 mM CaCl2. After incubation, the cells were collected by centrifugation, resuspended in HBSS containing 5 mg/ml fatty-acid-free BSA, and analyzed by a FACSAria II. To determine the scramblase activity, 1.5×10^6 cells were incubated at 25° C. for 4 min with 0.5 μM NBD-PC.

CDC50A^ED29 = assay: In vitro phagocytosis assay: thio-pMac engulfment of pHrodo-labeled cells; type: cell-based, mouse; settings: 2 h incubation, 4 μg/ml MFG-E8 D89E
Description: FIG. 6A Engulfment of PtdSer-exposing viable cells (A). Thio-pMacs were incubated for 2 h with pHrodo-labeled W3-Ildm, CDC50A^ED29, its hCDC50A transformant (CDC50A^ED29-hCDC50A), or W3-D430G-L in the presence or absence of 4 μg/ml of MFG-E8 D89E, and analyzed by FACS.
To prepare thioglycollate-elicited peritoneal macrophages (thio-pMacs), female C57BL/6J mice at 7-12 weeks of age were injected intraperitonealiy with 60 mg of thioglycollate (Sigma-Aldrich), and peritoneal macrophages were collected 4 days later. Phagocytosis was assayed by following the transport of pHrodo-stained prey into macrophage lysosomes (50, 51). In brief, 5×10^5 thio-pMacs were grown overnight in 12-well plates (Corning). Growing or apoptotic cells (2.0×10^7) were washed with PBS and incubated with 40 ng/ml pHrodo for 10 min at room temperature. After stopping the reaction with 2 ml FCS, the cells were washed with IMDM containing 10% FCS, added to the macrophages in the medium containing 1% methyl cellulose (Sigma-Aldrich), spun at 500×g for 4 min at room temperature using a swinging rotor, and incubated at 37° C. The macrophages were detached from the plate by treatment with 0.25% trypsin, stained with APC-conjugated rat anti-mouse Mac1, suspended in 20 mM CHES-NaOH buffer (pH 9.0) containing 150 mM NaCl, 2% PCS, and 200 nM Sytox blue, and analyzed by flow cytometry using the FACSCanto II. […]

Molecule: CC(C)[C@H](NC(=O)c1ccc2ccccc2n1)C(=O)N[C@@H](CC(=O)O)C(=O)COc1c(F)cccc1F [Q-VD-OPh]
FasL-caused shift in ATP11C's mobility (from 120 to 50 kDa) (ATP11C): prevented

incorporation of phospholipids in ATP11C^GT (ATP11C^GT): inhibited
Molecule: [O]=[V]([O-])([O-])[O-] [orthovanadate]

B1: D89E mutant of MFG-E8: D89E mutant of MFG-E8, which masks PtdSer; produced in HEK293T cells (protein, UniProt P21956 23-463, looked up, variant D89E)
Lactadherin: ASGDFCDSSLCLNGGTCLTGQDNDIYCLCPEGFTGLVCNETERGPCSPNPCYNDAKCLVTLDTQRGEIFTEYICQCPVGYSGIHCETETNYYNLDGEYMFTTAVPNTAVPTPAPTPDLSNNLASRCSTQLGMEGGAIADSQISASSVYMGFMGLQRWGPELARLYRTGIVNAWTASNYDSKPWIQVNLLRKMRVSGVMTQGASRAGRAEYLKTFKVAYSLDGRKFEFIQDESGGDKEFLGNLDNNSLKVNMFNPTLEAQYIKLYPVSCHRGCTLRFELLGCELHGCSEPLGLKNNTIPDSQMSASSSYKTWNLRAFGWYPHLGRLDNQGKINAWTAQSNSAKEWLQVDLGTQRQVTGIITQGARDFGHIQYVASYKVAHSDDGVQWTVYEEQGSSKVFQGNLDNNSHKKNIFEKPFMARYVRVLPVSWHNRITLRLELLGC
engulfment of CDC50A^ED29 by thio-pMacs (CDC50A^ED29): inhibited
